# Results from patent publication US9738634B2, “Heterocyclic amide compound and herbicide” (SYNGENTA PARTICIPATIONS AG, priority 2013, dated 2017).
# What was measured:
# Format in all cases: in vivo
# Settings in all cases: treatment dosage 320 g/ha
# barnyard grass [1] = test: Test Example 1: weedkilling efficacy, preemergent weed treatment in the submerged state; A: barnyard grass
# In short: (§1)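 Pots of alluvial soil flooded 4 cm deep, sown with barnyard grass, bulrush and oval-leafed pondweed and transplanted with 2.5-leaf rice. Emulsified compound applied to the water surface on sowing day at stated g/ha; greenhouse 25–30 °C, effects assessed 3 weeks after treatment.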
# bulrush [2] = test: Test Example 1: weedkilling efficacy, preemergent weed treatment in the submerged state; B: bulrush
# In short: as §1
# oval-leafed pondweed [3] = test: Test Example 1: weedkilling efficacy, preemergent weed treatment in the submerged state; C: oval-leafed pondweed
# In short: as §1
# transplanted rice = test: Test Example 1: preemergent weed treatment in the submerged state, effect on crop; a: transplanted rice
# In short: as §1
# barnyard grass [4] = test: Test Example 2: weedkilling efficacy, growth period weed treatment in the submerged state; A: barnyard grass
# In short: (§2)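 Barnyard grass, bulrush and oval-leafed pondweed sown in alluvial soil under 4 cm flooding, greenhouse 25 to 30° C. At 1-2 leaf stage, water-diluted emulsion applied to the water surface at stated g/ha dosages; effects scored 3 weeks later.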
# bulrush [5] = test: Test Example 2: weedkilling efficacy, growth period weed treatment in the submerged state; B: bulrush
# In short: as §2
# oval-leafed pondweed [6] = test: Test Example 2: weedkilling efficacy, growth period weed treatment in the submerged state; C: oval-leafed pondweed
# In short: as §2
# crabgrass [7] = test: Test Example 3: weedkilling efficacy through soil treatment; D: crabgrass
# In short: (§3)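 Crop and weed responses were judged three weeks after a uniform surface spray of the water-diluted emulsion at the given g/ha rate. Seeds sat beneath about 1.5 cm of sterilized diluvial soil, and boxes stood in a greenhouse at 25 to 30° C.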
# green foxtail [8] = test: Test Example 3: weedkilling efficacy through soil treatment; E: green foxtail
# In short: as §3
# barnyard grass [9] = test: Test Example 3: weedkilling efficacy through soil treatment; F: barnyard grass
# In short: as §3
# wild oat [10] = test: Test Example 3: weedkilling efficacy through soil treatment; G: wild oat
# In short: as §3
# black-grass [11] = test: Test Example 3: weedkilling efficacy through soil treatment; H: black-grass
# In short: as §3
# Italian ryegrass [12] = test: Test Example 3: weedkilling efficacy through soil treatment; I: Italian ryegrass
# In short: as §3
# common wind-grass [13] = test: Test Example 3: weedkilling efficacy through soil treatment; J: common wind-grass
# In short: as §3
# Indian mallow [14] = test: Test Example 3: weedkilling efficacy through soil treatment; K: Indian mallow
# In short: as §3
# redroot pigweed [15] = test: Test Example 3: weedkilling efficacy through soil treatment; L: redroot pigweed
# In short: as §3
# fig-leafed goosefoot [16] = test: Test Example 3: weedkilling efficacy through soil treatment; M: fig-leafed goosefoot
# In short: as §3
# chickweed [17] = test: Test Example 3: weedkilling efficacy through soil treatment; N: chickweed
# In short: as §3
# catchweed [18] = test: Test Example 3: weedkilling efficacy through soil treatment; O: catchweed
# In short: as §3
# birds-eye speedwell [19] = test: Test Example 3: weedkilling efficacy through soil treatment; p: birds-eye speedwell
# In short: as §3
# directly sown rice [20] = test: Test Example 3: soil treatment, effect on crop; b: directly sown rice
# In short: as §3
# corn [21] = test: Test Example 3: soil treatment, effect on crop; c: corn
# In short: as §3
# soybean [22] = test: Test Example 3: soil treatment, effect on crop; d: soybean
# In short: as §3
# wheat [23] = test: Test Example 3: soil treatment, effect on crop; e: wheat
# In short: as §3
# beet [24] = test: Test Example 3: soil treatment, effect on crop; f: beet
# In short: as §3
# rapeseed [25] = test: Test Example 3: soil treatment, effect on crop; g: rapeseed
# In short: as §3
# crabgrass [26] = test: Test Example 4: weedkilling efficacy by foliar treatment; D: crabgrass
# In short: (§4)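 Seeds are spot-sown into sterilized diluvial soil and covered with about 1.5 cm of soil. After 14 days' greenhouse growth at 25 to 30° C, plants are sprayed on stems and leaves with diluted emulsion at the stated g/ha rate, then scored at 3 weeks.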
# green foxtail [27] = test: Test Example 4: weedkilling efficacy by foliar treatment; E: green foxtail
# In short: as §4
# barnyard grass [28] = test: Test Example 4: weedkilling efficacy by foliar treatment; F: barnyard grass
# In short: as §4
# wild oat [29] = test: Test Example 4: weedkilling efficacy by foliar treatment; G: wild oat
# In short: as §4
# black-grass [30] = test: Test Example 4: weedkilling efficacy by foliar treatment; H: black-grass
# In short: as §4
# Italian ryegrass [31] = test: Test Example 4: weedkilling efficacy by foliar treatment; I: Italian ryegrass
# In short: as §4
# common wind-grass [32] = test: Test Example 4: weedkilling efficacy by foliar treatment; J: common wind-grass
# In short: as §4
# Indian mallow [33] = test: Test Example 4: weedkilling efficacy by foliar treatment; K: Indian mallow
# In short: as §4
# redroot pigweed [34] = test: Test Example 4: weedkilling efficacy by foliar treatment; L: redroot pigweed
# In short: as §4
# fig-leafed goosefoot [35] = test: Test Example 4: weedkilling efficacy by foliar treatment; M: fig-leafed goosefoot
# In short: as §4
# chickweed [36] = test: Test Example 4: weedkilling efficacy by foliar treatment; N: chickweed
# In short: as §4
# catchweed [37] = test: Test Example 4: weedkilling efficacy by foliar treatment; O: catchweed
# In short: as §4
# birds-eye speedwell [38] = test: Test Example 4: weedkilling efficacy by foliar treatment; p: birds-eye speedwell
# In short: as §4
# directly sown rice [39] = test: Test Example 4: foliar treatment, effect on crop; b: directly sown rice
# In short: as §4
# corn [40] = test: Test Example 4: foliar treatment, effect on crop; c: corn
# In short: as §4
# soybean [41] = test: Test Example 4: foliar treatment, effect on crop; d: soybean
# In short: as §4
# wheat [42] = test: Test Example 4: foliar treatment, effect on crop; e: wheat
# In short: as §4
# beet [43] = test: Test Example 4: foliar treatment, effect on crop; f: beet
# In short: as §4
# rapeseed [44] = test: Test Example 4: foliar treatment, effect on crop; g: rapeseed
# In short: as §4
smiles,measurement,setting,value
CCc1cc(F)nc(NC(=O)C(C)(C)N2COC(C)=C(c3ccccc3)C2=O)c1 [B-2-39],A (barnyard grass) weedkilling efficacy grade,barnyard grass [1],"5 (weed kill ratio 90% or more, (practically complete withering))"
same,B (bulrush) weedkilling efficacy grade,bulrush [2],"5 (weed kill ratio 90% or more, (practically complete withering))"
same,C (oval-leafed pondweed) weedkilling efficacy grade,oval-leafed pondweed [3],"5 (weed kill ratio 90% or more, (practically complete withering))"
same,a (transplanted rice) effect on crop grade,transplanted rice,"1 (weed kill ratio 5% or more, less than 20%)"
same,A (barnyard grass) weedkilling efficacy grade,barnyard grass [4],"5 (weed kill ratio 90% or more, (practically complete withering))"
same,B (bulrush) weedkilling efficacy grade,bulrush [5],"5 (weed kill ratio 90% or more, (practically complete withering))"
same,C (oval-leafed pondweed) weedkilling efficacy grade,oval-leafed pondweed [6],"5 (weed kill ratio 90% or more, (practically complete withering))"
same,D (crabgrass) weedkilling efficacy grade,crabgrass [7],"5 (weed kill ratio 90% or more, (practically complete withering))"
same,E (green foxtail) weedkilling efficacy grade,green foxtail [8],"5 (weed kill ratio 90% or more, (practically complete withering))"
same,F (barnyard grass) weedkilling efficacy grade,barnyard grass [9],"5 (weed kill ratio 90% or more, (practically complete withering))"
same,G (wild oat) weedkilling efficacy grade,wild oat [10],"5 (weed kill ratio 90% or more, (practically complete withering))"
same,H (black-grass) weedkilling efficacy grade,black-grass [11],"5 (weed kill ratio 90% or more, (practically complete withering))"
same,I (Italian ryegrass) weedkilling efficacy grade,Italian ryegrass [12],"5 (weed kill ratio 90% or more, (practically complete withering))"
same,J (common wind-grass) weedkilling efficacy grade,common wind-grass [13],"5 (weed kill ratio 90% or more, (practically complete withering))"
same,K (Indian mallow) weedkilling efficacy grade,Indian mallow [14],"2 (weed kill ratio 20% or more, less than 40%)"
same,L (redroot pigweed) weedkilling efficacy grade,redroot pigweed [15],"3 (weed kill ratio 40% or more, less than 70%)"
same,M (fig-leafed goosefoot) weedkilling efficacy grade,fig-leafed goosefoot [16],"4 (weed kill ratio 70% or more, less than 90%)"
same,N (chickweed) weedkilling efficacy grade,chickweed [17],"4 (weed kill ratio 70% or more, less than 90%)"
same,O (catchweed) weedkilling efficacy grade,catchweed [18],"4 (weed kill ratio 70% or more, less than 90%)"
same,P (birds-eye speedwell) weedkilling efficacy grade,birds-eye speedwell [19],"5 (weed kill ratio 90% or more, (practically complete withering))"
same,b (directly sown rice) effect on crop grade,directly sown rice [20],"4 (weed kill ratio 70% or more, less than 90%)"
same,c (corn) effect on crop grade,corn [21],0 (weed kill ratio 5% or less (practically no effect))
same,d (soybean) effect on crop grade,soybean [22],0 (weed kill ratio 5% or less (practically no effect))
same,e (wheat) effect on crop grade,wheat [23],0 (weed kill ratio 5% or less (practically no effect))
same,f (beet) effect on crop grade,beet [24],"3 (weed kill ratio 40% or more, less than 70%)"
same,g (rapeseed) effect on crop grade,rapeseed [25],"4 (weed kill ratio 70% or more, less than 90%)"
same,D (crabgrass) weedkilling efficacy grade,crabgrass [26],"5 (weed kill ratio 90% or more, (practically complete withering))"
same,E (green foxtail) weedkilling efficacy grade,green foxtail [27],"5 (weed kill ratio 90% or more, (practically complete withering))"
same,F (barnyard grass) weedkilling efficacy grade,barnyard grass [28],"5 (weed kill ratio 90% or more, (practically complete withering))"
same,G (wild oat) weedkilling efficacy grade,wild oat [29],"4 (weed kill ratio 70% or more, less than 90%)"
same,H (black-grass) weedkilling efficacy grade,black-grass [30],"5 (weed kill ratio 90% or more, (practically complete withering))"
same,I (Italian ryegrass) weedkilling efficacy grade,Italian ryegrass [31],"5 (weed kill ratio 90% or more, (practically complete withering))"
same,J (common wind-grass) weedkilling efficacy grade,common wind-grass [32],"5 (weed kill ratio 90% or more, (practically complete withering))"
same,K (Indian mallow) weedkilling efficacy grade,Indian mallow [33],"4 (weed kill ratio 70% or more, less than 90%)"
same,L (redroot pigweed) weedkilling efficacy grade,redroot pigweed [34],"3 (weed kill ratio 40% or more, less than 70%)"
same,M (fig-leafed goosefoot) weedkilling efficacy grade,fig-leafed goosefoot [35],"5 (weed kill ratio 90% or more, (practically complete withering))"
same,N (chickweed) weedkilling efficacy grade,chickweed [36],"4 (weed kill ratio 70% or more, less than 90%)"
same,O (catchweed) weedkilling efficacy grade,catchweed [37],"4 (weed kill ratio 70% or more, less than 90%)"
same,P (birds-eye speedwell) weedkilling efficacy grade,birds-eye speedwell [38],"5 (weed kill ratio 90% or more, (practically complete withering))"
same,b (directly sown rice) effect on crop grade,directly sown rice [39],"4 (weed kill ratio 70% or more, less than 90%)"
same,c (corn) effect on crop grade,corn [40],"4 (weed kill ratio 70% or more, less than 90%)"
same,d (soybean) effect on crop grade,soybean [41],"4 (weed kill ratio 70% or more, less than 90%)"
same,e (wheat) effect on crop grade,wheat [42],0 (weed kill ratio 5% or less (practically no effect))
same,f (beet) effect on crop grade,beet [43],"4 (weed kill ratio 70% or more, less than 90%)"
same,g (rapeseed) effect on crop grade,rapeseed [44],"4 (weed kill ratio 70% or more, less than 90%)"
